In patent publication US20250154138A1, “Small Molecule IL-17A Modulators” (BeiGene, Ltd., priority 2022, published 2025) one finds IC50 data, which are given here for 18 compounds.

Assay [1] relates to IL-17-induced GROα secretion from HT-29 cells. Nature of the assay: GROα release assay in human colorectal adenocarcinoma epithelial cell (HT-29, ELISA). The conditions noted are these: Homo sapiens, HT-29, 48 h, 10 ng/mL IL-17A, highest concentration 10 μM, read-out: Cellular assay HT29 cell/CXCL1 IC50. It counts as cell-based. Summed up: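 HT-29 cells were exposed 48 h at 37°C to IL-17A (final 10 ng/mL) preincubated 15 min with compound (4-fold dilutions, top 10 μM). Secreted GROα was quantified by ELISA against a standard curve, and IC50 obtained by four-parameter fitting.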
(In general: An ELISA detects its analyte on a solid surface through an enzyme-linked reagent.)

Assay [2] concerns the target human IL-17A / human IL-17RA (Homo sapiens (Human), UniProt Q16552). Nature of the assay: Human IL-17A biochemical assay (HTRF, blocking of IL-17A binding to IL-17RA). The conditions noted are these: 0.4 nM IL-17A, 0.3 nM IL-17RA, max compound concentration 10 uM. In short, it runs like this:
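HTRF competition: 0.4 nM recombinant human IL-17A pre-incubated 3 h at room temperature with compound (top 10 uM, 2.7-fold, 10 points) in HEPES pH 7.5 buffer, then 0.3 nM IL-17RA added for 1 h, then anti-6His-Tb/anti-human IgG-XL665 detection for 1 h.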
In general terms: TR-FRET usually uses a lanthanide donor and a delayed reading to cut background.

Sequence of human IL-17A / human IL-17RA (Q16552 24-155): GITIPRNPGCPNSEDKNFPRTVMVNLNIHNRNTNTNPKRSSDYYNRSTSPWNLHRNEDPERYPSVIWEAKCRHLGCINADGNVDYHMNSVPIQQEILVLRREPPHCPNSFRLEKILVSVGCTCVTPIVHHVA

Take `Cc1nonc1C(=O)N[C@H](C(=O)Nc1ccc2c(c1)CC(C(=O)Nc1cncs1)(N1CC3(CC3)CNC1=O)C2)C1CCC(F)(F)CC1` (stereo partly drawn) [Example 215, N-((1S)-1-(4,4-difluorocyclohexyl)-2-oxo-2-((2-(6-oxo-5,7-diazaspiro[2.5]octan-5-yl)-2-(thiazol-5-ylcarbamoyl)-2,3-dihydro-1H-inden-5-yl)amino)ethyl)-4-methyl-1,2,5-oxadiazole-3-carboxamide]: the IC50 in assay [1] was 134 nM; in assay [2], 33.6 nM.

As for `Cc1nonc1C(=O)N[C@H](C(=O)Nc1ccc2c(c1)CC(C(=O)Nc1cccc(F)c1)(N1CC3(CC3)CNC1=O)C2)C(C1CC1)C1CC1` (stereo partly drawn) [Example 216, N-((2S)-1,1-dicyclopropyl-3-((2-((3-fluorophenyl)carbamoyl)-2-(6-oxo-5,7-diazaspiro[2.5]octan-5-yl)-2,3-dihydro-1H-inden-5-yl)amino)-3-oxopropan-2-yl)-4-methyl-1,2,5-oxadiazole-3-carboxamide], the IC50 turned out to be 58.9 nM in assay [1] and 23.3 nM in assay [2].

With `Cn1nccc1C(=O)NC(C(=O)Nc1ccc2c(c1)CC(N1C[C@@H](C(F)(F)F)NC1=O)C2)C1CCc2cc(Cl)ccc2C1` (stereo partly drawn) [Example 217, N-(1-(6-chloro-1,2,3,4-tetrahydronaphthalen-2-yl)-2-oxo-2-((2-((S)-2-oxo-4-(trifluoromethyl)imidazolidin-1-yl)-2,3-dihydro-1H-inden-5-yl)amino)ethyl)-1-methyl-1H-pyrazole-5-carboxamide], the figures for the IC50 in assay [1] and in assay [2] were 394 nM and 62.5 nM, respectively.

For the compound `Cc1nocc1C(=O)N[C@H](C(=O)Nc1ccc2c(c1)CC(N1C[C@@H](C(F)(F)F)NC1=O)C2)C(C1CC1)C1CC1` (stereo partly drawn) [Example 218, N-((2S)-1,1-dicyclopropyl-3-oxo-3-((2-((S)-2-oxo-4-(trifluoromethyl)imidazolidin-1-yl)-2,3-dihydro-1H-inden-5-yl)amino)propan-2-yl)-3-methylisoxazole-4-carboxamide], the IC50 in assay [1] came out at 385 nM; in assay [2] it was 141 nM.

Take `Cc1ccc(F)cc1NC(=O)C1(N2CC3(CC3)CNC2=O)Cc2ccc(NC(=O)[C@@H](NC(=O)c3nonc3C)C3CCC(F)(F)CC3)cc2C1` (stereo partly drawn) [Example 219, N-((1S)-1-(4,4-difluorocyclohexyl)-2-((2-((5-fluoro-2-methylphenyl)carbamoyl)-2-(6-oxo-5,7-diazaspiro[2.5]octan-5-yl)-2,3-dihydro-1H-inden-5-yl)amino)-2-oxoethyl)-4-methyl-1,2,5-oxadiazole-3-carboxamide]: the IC50 worked out at 297 nM in assay [1] and 107 nM in assay [2].

As for `Cc1nonc1C(=O)N[C@H](C(=O)Nc1ccc2c(c1)CC(C(=O)Nc1cccc(Cl)c1)(N1CC3(CC3)CNC1=O)C2)C1CCC(F)(F)CC1` (stereo partly drawn) [Example 220, N-((1S)-2-((2-((3-chlorophenyl)carbamoyl)-2-(6-oxo-5,7-diazaspiro[2.5]octan-5-yl)-2,3-dihydro-1H-inden-5-yl)amino)-1-(4,4-difluorocyclohexyl)-2-oxoethyl)-4-methyl-1,2,5-oxadiazole-3-carboxamide], the IC50 in assay [1] stood at 80.6 nM; in assay [2], 169 nM.

On to `Cc1ccc(NC(=O)C2(N3CC4(CC4)CNC3=O)Cc3ccc(NC(=O)[C@@H](NC(=O)c4nonc4C)C4CCC(F)(F)CC4)cc3C2)cc1` (stereo partly drawn) [Example 221, N-((1S)-1-(4,4-difluorocyclohexyl)-2-oxo-2-((2-(6-oxo-5,7-diazaspiro[2.5]octan-5-yl)-2-(p-tolylcarbamoyl)-2,3-dihydro-1H-inden-5-yl)amino)ethyl)-4-methyl-1,2,5-oxadiazole-3-carboxamide], for which the IC50 in assay [1] is 111 nM; in assay [2], 47.8 nM.

`Cc1nonc1C(=O)N[C@H](C(=O)Nc1ccc2c(c1)CC(c1cn3ccccc3n1)(N1CC3(CC3)CNC1=O)C2)C(C1CC1)C1CC1` (stereo partly drawn) [Example 222, N-((2S)-1,1-dicyclopropyl-3-((2-(imidazo[1,2-a]pyridin-2-yl)-2-(6-oxo-5,7-diazaspiro[2.5]octan-5-yl)-2,3-dihydro-1H-inden-5-yl)amino)-3-oxopropan-2-yl)-4-methyl-1,2,5-oxadiazole-3-carboxamide]: the IC50 in assay [1] amounted to 66.6 nM; in assay [2], 34.3 nM.

Turning to `Cc1nonc1C(=O)N[C@H](C(=O)Nc1ccc2c(c1)CC(c1cn3ccccc3n1)(N1CC3(CC3)CNC1=O)C2)C1CCC(F)(F)CC1` (stereo partly drawn) [Example 223, N-((1S)-1-(4,4-difluorocyclohexyl)-2-((2-(imidazo[1,2-a]pyridin-2-yl)-2-(6-oxo-5,7-diazaspiro[2.5]octan-5-yl)-2,3-dihydro-1H-inden-5-yl)amino)-2-oxoethyl)-4-methyl-1,2,5-oxadiazole-3-carboxamide], the figures for the IC50 in assay [1] and in assay [2] were 606 nM and 118 nM, respectively.

For the compound `Cn1nccc1C(=O)NC(C(=O)Nc1ccc2c(c1)CC(N1C[C@@H](C(F)(F)F)NC1=O)C2)C1Cc2ccc(Cl)cc2C2(CC2)C1` (stereo partly drawn) [Example 224, N-(1-(7′-chloro-3′,4′-dihydro-2′H-spiro[cyclopropane-1,1′-naphthalen]-3′-yl)-2-oxo-2-((2-((S)-2-oxo-4-(trifluoromethyl)imidazolidin-1-yl)-2,3-dihydro-1H-inden-5-yl)amino)ethyl)-1-methyl-1H-pyrazole-5-carboxamide], the IC50 in assay [1] is 85.1 nM; in assay [2], 47.8 nM.

With `COCC1(N2CC(C(F)(F)F)NC2=O)Cc2ccc(NC(=O)[C@@H](NC(=O)c3nonc3C)C(C3CC3)C3CC3)cc2C1` (stereo partly drawn) [Example 225, N-((2S)-1,1-dicyclopropyl-3-((2-(methoxymethyl)-2-(2-oxo-4-(trifluoromethyl)imidazolidin-1-yl)-2,3-dihydro-1H-inden-5-yl)amino)-3-oxopropan-2-yl)-4-methyl-1,2,5-oxadiazole-3-carboxamide], the IC50 in assay [1] is 2320 nM; in assay [2] it was 1270 nM.

On to `Cc1nonc1C(=O)N[C@H](C(=O)Nc1ccc2c(c1)CC(C#N)(N1CC3(CC3)CNC1=O)C2)C(C1CC1)C1CC1` (stereo partly drawn) [Example 226, N-((2S)-1-((2-cyano-2-(6-oxo-5,7-diazaspiro[2.5]octan-5-yl)-2,3-dihydro-1H-inden-5-yl)amino)-3,3-dicyclopropyl-1-oxopropan-2-yl)-4-methyl-1,2,5-oxadiazole-3-carboxamide], for which the IC50 in assay [1] turned out to be 225 nM; in assay [2], 50.4 nM.

As to `Cc1nonc1C(=O)NC(C(=O)Nc1ccc2c(c1)CC(N1C[C@@H](C(F)(F)F)NC1=O)C2)C1Cc2ccc(Cl)cc2C2(CC2)C1` (stereo partly drawn) [Example 227, N-(1-(7′-chloro-3′,4′-dihydro-2′H-spiro[cyclopropane-1,1′-naphthalen]-3′-yl)-2-oxo-2-((2-((S)-2-oxo-4-(trifluoromethyl)imidazolidin-1-yl)-2,3-dihydro-1H-inden-5-yl)amino)ethyl)-4-methyl-1,2,5-oxadiazole-3-carboxamide], the IC50 is 168 nM in assay [1] and 112 nM in assay [2].

As to `Cc1nonc1C(=O)N[C@H](C(=O)Nc1ccc2c(c1)CC(C(=O)NCc1cccnn1)(N1CC3(CC3)CNC1=O)C2)C1CCC(F)(F)CC1` (stereo partly drawn) [Example 228, N-((1S)-1-(4,4-difluorocyclohexyl)-2-oxo-2-((2-(6-oxo-5,7-diazaspiro[2.5]octan-5-yl)-2-((pyridazin-3-ylmethyl)carbamoyl)-2,3-dihydro-1H-inden-5-yl)amino)ethyl)-4-methyl-1,2,5-oxadiazole-3-carboxamide], the IC50 was 49.1 nM in assay [1] and 15.9 nM in assay [2].

Turning to `Cc1cccc(NC(=O)C2(N3CC4(CC4)CNC3=O)Cc3ccc(NC(=O)[C@@H](NC(=O)c4nonc4C)C4CCC(F)(F)CC4)cc3C2)c1` (stereo partly drawn) [Example 229, N-((1S)-1-(4,4-difluorocyclohexyl)-2-oxo-2-((2-(6-oxo-5,7-diazaspiro[2.5]octan-5-yl)-2-(m-tolylcarbamoyl)-2,3-dihydro-1H-inden-5-yl)amino)ethyl)-4-methyl-1,2,5-oxadiazole-3-carboxamide], the IC50 in assay [1] stood at 85.1 nM; in assay [2] it was 28.6 nM.

In the case of `Cc1nonc1C(=O)N[C@H](C(=O)Nc1ccc2c(c1)CC(C1CCCC1)(N1CC3(CC3)CNC1=O)C2)C(C1CC1)C1CC1` (stereo partly drawn) [Example 230, N-((2S)-1-((2-cyclopentyl-2-(6-oxo-5,7-diazaspiro[2.5]octan-5-yl)-2,3-dihydro-1H-inden-5-yl)amino)-3,3-dicyclopropyl-1-oxopropan-2-yl)-4-methyl-1,2,5-oxadiazole-3-carboxamide], the values for the IC50 in assay [1] and in assay [2] were 9470 nM and 4460 nM, respectively.

On to `Cc1nonc1C(=O)N[C@H](C(=O)Nc1ccc2c(c1)CC(N1C[C@@H](C(C)C)NC1=O)C2)C(C1CC1)C1CC1` (stereo partly drawn) [Example 231, N-((2S)-1,1-dicyclopropyl-3-((2-((R)-4-isopropyl-2-oxoimidazolidin-1-yl)-2,3-dihydro-1H-inden-5-yl)amino)-3-oxopropan-2-yl)-4-methyl-1,2,5-oxadiazole-3-carboxamide], for which the results for the IC50 in assay [1] and in assay [2] were 1970 nM and 1080 nM, respectively.

Consider `Cc1nonc1C(=O)N[C@H](C(=O)Nc1ccc2c(c1)CC(C(=O)NC1(c3ccccc3F)CC1)(N1CC3(CC3)CNC1=O)C2)C1CCC(F)(F)CC1` (stereo partly drawn) [Example 232, N-((1S)-1-(4,4-difluorocyclohexyl)-2-((2-((1-(2-fluorophenyl)cyclopropyl)carbamoyl)-2-(6-oxo-5,7-diazaspiro[2.5]octan-5-yl)-2,3-dihydro-1H-inden-5-yl)amino)-2-oxoethyl)-4-methyl-1,2,5-oxadiazole-3-carboxamide], for which the IC50 in assay [1] is 158 nM; in assay [2], 117 nM.
